Measurements from US11440940B2, “Polymyxin B component or salt thereof, and preparation and application thereof” (SPH NO.1 BIOCHEMICAL & PHARMACEUTICAL CO.,LTD., priority 2020, dated 2022).
Converted amounts (≈) assume the structure as drawn. Read-outs that look alike come from different tables or passages of the source. Where a SMILES comes first, the peptide text is derived from it. Bridges are numbered along the chain shown (N, C = ends). [ ]: non-standard residue; d: D form. The star is where a group is joined. aThr = C[C@H](O)[C@H](N)C(=O)O; X2 = CC[C@@H](C)CC/C=C/C(=O)*; X1 = CC[C@@H](C)CCCCC(=O)*; Dab = NCC[C@H](N)C(=O)O

Key:
[1] = test system: Acinetobacter baumannii ATCC19606; format: cell-based
Method: Minimal inhibitory concentrations (MIC) of the polymyxin B1 (PMB1) and the 2′,3′-dehydropolymyxin B1 against Acinetobacter baumannii were determined using a microdilution broth method as instructed by Clinical & Laboratory Standards Institute (CLSI). Specifically, Acinetobacter baumannii ATCC19606 (standard strain) was inoculated into a 96-well plate at a density of […], to which a PMB1 solution (as control) or a 2′,3′-dehydropolymyxin B1 solution was added to a series of final concentrations of 0.125, 0.25, 0.5, 1, 2, 4 and 8 mg/L. The 96-well plate was incubated at 35±2° C. for 18-24 h, and then observed for the turbidity in each test well, where the lowest concentration of PMB1 or 2′,3′-dehydropolymyxin B1 under which the system in the test well became clear was considered as the corresponding MIC.

[2] = test system: Pseudomona aeruginosa ATCC27853; format: cell-based
Method: Furthermore, the polymyxin B1 (PMB1) and the 2′,3′-dehydropolymyxin B1 were also determined for MIC against Pseudomona aeruginosa using the microdilution broth method as instructed by CLSI. Similarly, the Pseudomona aeruginosa ATCC27853 (standard strain) was inoculated into a 96-well plate at a density of 10^6 CFU/mL, to which a PMB1 solution (as control) or a 2′,3′-dehydropolymyxin B1 solution was added to a series of final concentrations of 0.125, 0.25, 0.5, 1, 2, 4 and 8 mg/L. The 96-well plate was incubated at […] for 18-24 h, and then observed for the turbidity in each test well, where the lowest concentration of PMB1 or 2′,3′-dehydropolymyxin B1 under which the system in the test well became clear was considered as the corresponding MIC.

| MIC ([1]; ATCC19606) | MIC ([2]; ATCC27853) | SMILES | MIC ([1]; Acinetobacter baumannii ATCC19606 (standard strain), 96-well plate, 35±2° C., 18-24 h, turbidity) | MIC ([2]; Pseudomona aeruginosa ATCC27853 (standard strain), 96-well plate, 18-24 h, turbidity) |
| --- | --- | --- | --- | --- |
|  |  | CC[C@@H](C)CCCCC(=O)N[C@@H](CCN)C(=O)N[C@H](C(=O)N[C@@H](CCN)C(=O)N[C@H]1CCNC(=O)[C@H]([C@H](C)O)NC(=O)[C@H](CCN)NC(=O)[C@H](CCN)NC(=O)[C@H](CC(C)C)NC(=O)[C@@H](Cc2ccccc2)NC(=O)[C@H](CCN)NC1=O)[C@H](C)O [Polymyxin B1, polymyxin B1] (X1-[Dab][aThr][Dab][Dab][Dab][dF]L[Dab][Dab][aThr]; lactam 4-C) | 1 mg/L (≈ 0.831 µM) | 1 mg/L (≈ 0.831 µM) |
| 0.5 mg/L (≈ 0.416 µM) | 1 mg/L (≈ 0.832 µM) | CC[C@@H](C)CC/C=C/C(=O)N[C@@H](CCN)C(=O)N[C@H](C(=O)N[C@@H](CCN)C(=O)N[C@H]1CCNC(=O)[C@H]([C@H](C)O)NC(=O)[C@H](CCN)NC(=O)[C@H](CCN)NC(=O)[C@H](CC(C)C)NC(=O)[C@@H](Cc2ccccc2)NC(=O)[C@H](CCN)NC1=O)[C@H](C)O [2′,3′-dehydropolymyxin B1] (X2-[Dab][aThr][Dab][Dab][Dab][dF]L[Dab][Dab][aThr]; lactam 4-C) |  |  |
